# In patent publication EP4700025A1, “AMIDE COMPOUND, PHARMACEUTICAL COMPOSITION COMPRISING SAME, AND USE THEREOF” (Suzhou Genhouse Bio Co., Ltd., priority 2023, dated 2024):
# Read-outs that look alike come from different tables or passages of the source.
# How the values were obtained:
# PRMT5 = PRMT5 (Homo sapiens, UniProt O14744); assay: Inhibitory activity against enzymatic activity of PRMT5 (fluorescence polarization); format: biochemical; conditions: PRMT5 25 nM, SAM 1 µM, polypeptide 1 µM, MTA 2 µM; 37 °C 2 hours
# PRMT5, sequence (O14744 whole entry): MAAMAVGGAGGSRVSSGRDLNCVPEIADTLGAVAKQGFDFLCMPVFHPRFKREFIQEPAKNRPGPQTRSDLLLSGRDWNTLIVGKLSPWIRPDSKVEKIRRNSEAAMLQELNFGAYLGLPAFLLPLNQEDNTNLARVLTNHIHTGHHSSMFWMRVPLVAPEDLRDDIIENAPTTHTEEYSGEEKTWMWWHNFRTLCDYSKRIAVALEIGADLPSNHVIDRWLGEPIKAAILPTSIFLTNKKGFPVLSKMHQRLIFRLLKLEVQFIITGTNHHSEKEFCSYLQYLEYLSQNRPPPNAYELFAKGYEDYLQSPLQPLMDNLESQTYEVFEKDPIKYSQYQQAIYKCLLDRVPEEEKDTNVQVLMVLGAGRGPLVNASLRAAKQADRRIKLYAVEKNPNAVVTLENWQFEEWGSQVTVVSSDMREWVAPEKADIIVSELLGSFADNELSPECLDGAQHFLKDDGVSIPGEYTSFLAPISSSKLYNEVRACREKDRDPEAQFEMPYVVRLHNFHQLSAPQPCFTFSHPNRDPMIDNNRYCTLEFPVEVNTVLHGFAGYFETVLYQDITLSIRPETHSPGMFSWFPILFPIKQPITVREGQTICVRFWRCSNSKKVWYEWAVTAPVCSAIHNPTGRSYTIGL
# PRMT5, sequence (Q9BQA1 whole entry partner): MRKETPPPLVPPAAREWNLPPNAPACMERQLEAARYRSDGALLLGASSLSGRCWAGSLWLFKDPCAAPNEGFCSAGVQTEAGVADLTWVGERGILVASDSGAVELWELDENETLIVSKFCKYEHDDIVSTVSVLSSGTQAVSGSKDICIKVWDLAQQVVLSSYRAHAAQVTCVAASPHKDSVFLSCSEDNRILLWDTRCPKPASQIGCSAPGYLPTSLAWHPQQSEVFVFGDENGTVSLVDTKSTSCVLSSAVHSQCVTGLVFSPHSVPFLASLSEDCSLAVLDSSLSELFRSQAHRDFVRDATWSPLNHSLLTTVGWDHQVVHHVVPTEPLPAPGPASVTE
# Description: The compounds were prepared into 10 mM stock solutions using DMSO, and then 9 concentration gradients (with an initial concentration of 10 µM followed by 1:5 dilution) were prepared using a buffer (50 mM Tris-HCl pH 8.5, 5 mM MgCl2, 4 mM DTT, 0.01% Triton X-100, 0.1 M NaCl, 0.5% DMSO), and each well received 5 µL of the diluted compound solutions. SAM, a polypeptide, and MTA were prepared using a buffer to final concentrations of 1 µM, 1 µM, and 2 µM, respectively, and were added to each well in a total of 5 µL. Meanwhile, an MTA-free group was set as a control. […] Subsequently, a mixture of 2.5 µL of stop buffer A, 2.5 µL of an 8× MT assay mixture (final concentration: 1×), and 24 µg/mL AMP2/GMP2 antibodies (final concentration: 3 µg/mL) was added. The resulting mixture was incubated at room temperature for 1.5 hours, and fluorescence polarization (FP) was measured (Ex 633, Em 647). Meanwhile, negative control wells without protein (Blank) and positive control wells without compound (DMSO) were set. Each experiment was independently repeated three times.
# Data processing: The numerical values of each group were recorded for statistical analysis, and the inhibition rate was calculated according to the following formula: inhibition percentage of compound wells (% inh) = [1 - (ave Blank - Cpd well)/(ave Blank - ave DMSO control)] × 100. Note: ave represents the average value, and Cpd represents the numerical value of the wells containing the compound. A sigmoidal dose-inhibition rate curve was plotted and fitted using a nonlinear regression model in the GraphPad Prism 7.0 software, and the IC50 value was calculated. Table 1. Inhibitory activity of compounds against enzymatic activity of PRMT5
# HCT-116 = assay: CCK8 proliferation inhibition, HCT-116; format: cell-based; conditions: Homo sapiens, 192 h, CCK8, 8 days after drug treatment
# Description: (§1) The above normally growing cells were digested with a cell trypsinization solution, centrifuged, counted, and seeded into a 96-well plate at an appropriate cell density (2000 cells/well) at 100 µL/well. The next day after cell seeding, the compounds at different concentrations were added to the wells. Three replicate wells were set for each concentration point, and a corresponding DMSO negative control group was also set. CCK8 solution was added to each well 8 days after drug treatment. The plate was incubated at 37 °C for a period of time (OD450 of the vehicle group reached 1.0 or higher) before the absorbance at 450 nm was read using a microplate reader. The inhibition rates were calculated, and the EC50 values were determined by fitting using the GraphPad Prism 7.0 software. Table 2. EC50 values of compounds at cellular level
# HCT-116-MTAP^-/- = assay: CCK8 proliferation inhibition, HCT-116-MTAP^-/-; format: cell-based; conditions: Homo sapiens, 192 h; HCT-116-MTAP^-/- (MTAP-deficient); CCK8, 8 days after drug treatment
# Description: as §1
# A549 = assay: CCK8 proliferation inhibition, A549; format: cell-based; conditions: Homo sapiens, 192 h, CCK8, 8 days after drug treatment
# Description: as §1
# SDMA [1] = assay: SDMA Inhibition Assay in HCT-116 cells; format: cell-based; conditions: Homo sapiens, HCT-116, 96 hours
# Description: (§2) The next day, the cells were treated with the compounds at different concentrations (with an initial concentration of 10 µM, 5-fold dilution, 9 concentration gradients). After 96 hours, the culture medium was pipetted out and the cells were washed 2 times with 100 µL of PBS. The cells were then fixed with 4% paraformaldehyde and incubated at room temperature for 20 min. The fixative solution was discarded, and the cells were washed with PBS. 150 µL of specialized blocking solution (containing 1% Triton-100) was added to each well for blocking at room temperature for 2 hours, and the plate was washed with PBS to remove excess blocking solution. […] The cells were incubated at 4 °C overnight. The next day, the cells were separately washed 2 times with 1× PBST. […] The cells were incubated at room temperature for 2 hours. The cells were washed 2 times with 1× PBST and 1 time with PBS. Fluorescence signals at 700 nm and 800 nm were separately detected using a Li-COR Odyssey two-color near-infrared laser imager. The inhibition rates were calculated, and the EC50 values were determined by fitting using the GraphPad Prism 7.0 software. Table 3. Inhibition of SDMA by test compounds
# SDMA [2] = assay: SDMA Inhibition Assay in HCT-116-MTAP^-/- cells; format: cell-based; conditions: Homo sapiens, 96 hours
# Description: as §2
# SDMA [3] = assay: SDMA Inhibition Assay in A549 cells; format: cell-based; conditions: Homo sapiens, A549, 96 hours
# Description: as §2
# [4] = Pharmacokinetic assay in mice; format: in vivo, Balb/c mice; conditions: mouse; for MRT inf: read-out: MRT(0-∞)
# Description: Eighteen male Balb/c mice aged 6 to 8 weeks were randomly divided into 2 groups (IV group and PO group). The corresponding compounds were administered to the animals in the IV group by tail intravenous injection at 2 mg/kg, and the corresponding compounds were administered to the animals in the PO group by oral gavage at 10 mg/kg or 100 mg/kg. The animals in the IV group were allowed free access to food and water, and the animals in the PO group were fasted overnight before administration and were fed 4 h after administration. Throughout the experiment, the animals were allowed free access to water. Plasma samples were separately collected at 0.083 h (only group IV), 0.25 h, 0.5 h, 1 h, 2 h, 4 h, 8 h, and 24 h after administration. About 100 µL of blood was collected from the orbit of the animal, placed into a 1.5 mL anticoagulation centrifuge tube, and centrifuged at 8000 rpm and 4 °C for 10 min. The upper plasma sample was transferred to an EP tube. The plasma samples were stored in a refrigerator at -80 °C until sample analysis. Pharmacokinetic parameters of the drug were calculated based on the drug concentration-time data, including the peak concentration Cmax, peak time Tmax, clearance rate CL, steady state apparent volume of distribution Vss, area under drug-time curve AUC, elimination half-life t1/2, bioavailability, and the like. Data below the 80% lower limit of quantification were excluded from the calculation of pharmacokinetic parameters.
# HCT-116-MTAP^-/- cells = assay: Pharmacodynamic study, HCT-116-MTAP^-/- subcutaneous xenograft; format: in vivo, mouse; conditions: HCT-116-MTAP^-/- xenograft, 60 mpk PO QD
# Description: (§3) Human colon cancer HCT-116-MTAP^-1- cells were cultured in monolayer in vitro using the McCoy 5A culture medium (HyClone) containing 10% fetal bovine serum (BI) and 1% penicillin and streptomycin (Beyotime) in an incubator at 37 °C with 5% CO2. The cells were digested with trypsin 2 to 3 times weekly for passaging. When the saturation degree of the cells was 80% to 90%, the cells were collected, counted, and inoculated. 5 × 10^6 (0.1 mL) HCT-116-MTAP^-/- cells were subcutaneously inoculated on the right back of each mouse. On about day 15 after inoculation of the cells, the mean tumor volume reached 172 mm^3. The mice were randomly grouped for administration (the animals were divided into an administration group and a control group, with 6 animals in each group). The day of grouping was designated as d0, and intragastric administration was started on d1. The administration was performed once daily at an administration volume of 10 mL/kg. Vehicle control was administered to the control group. The tumor volume was measured 2 to 3 times weekly, and meanwhile, the mice were weighed and the data were recorded; daily observations were made to record the body surface signs of the mice. After the experiment was completed, the tumors were collected, weighed, and photographed for recording.
# (§4) Calculation formula for tumor volume: Tumor volume (mm^3) = 1/2 × (a×b^2) [formula] (note: a represents long diameter and b represents short diameter) [formula]
# NCI-H838 cells = assay: Pharmacodynamic study, NCI-H838 subcutaneous xenograft; format: in vivo, mouse
# Description: as §3, with “non-small cell lung” for “colon”, “NCI-H838” for “HCT-116-MTAP^-1-”, “NCI-H838” for “HCT-116-MTAP^-/-”, “29” for “15”, “156” for “172”
# as §4
# CYP450 3A4 = target: T1, CYP450 3A4 (Homo sapiens, UniProt P08684); assay: Inhibition of human liver microsome CYP450 enzyme 3A4; format: in vitro ADME; conditions: human, microsomes, pH 7.4
# T1 construct: from tissue; host or cells: human liver microsomes
# T1 sequence (P08684 whole entry): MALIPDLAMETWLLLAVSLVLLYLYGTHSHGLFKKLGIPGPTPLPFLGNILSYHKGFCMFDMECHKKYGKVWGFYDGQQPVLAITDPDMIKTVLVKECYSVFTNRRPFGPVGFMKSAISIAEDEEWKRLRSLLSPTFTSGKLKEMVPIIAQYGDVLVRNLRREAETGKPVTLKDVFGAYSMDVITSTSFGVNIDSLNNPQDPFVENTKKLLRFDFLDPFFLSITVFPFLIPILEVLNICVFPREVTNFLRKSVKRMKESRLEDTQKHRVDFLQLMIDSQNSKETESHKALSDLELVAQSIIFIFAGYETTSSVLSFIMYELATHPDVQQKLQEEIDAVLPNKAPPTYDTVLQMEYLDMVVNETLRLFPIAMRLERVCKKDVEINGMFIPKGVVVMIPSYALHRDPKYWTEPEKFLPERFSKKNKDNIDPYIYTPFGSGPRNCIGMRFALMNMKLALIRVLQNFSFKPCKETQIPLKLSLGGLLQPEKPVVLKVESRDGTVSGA
# Description: 100 mM K-Buffer: 9.5 mL of stock solution A was mixed with 40.5 mL of stock solution B, the total volume was adjusted to 500 mL with ultrapure water, and the buffer was titrated to pH 7.4 with KOH or H3PO4. • Starting material A (1 M potassium dihydrogen phosphate): 136.5 g of potassium dihydrogen phosphate in 1 L of water; • Stock solution B ([…]): 174.2 g of potassium dihydrogen phosphate in 1 L of water.
# The test substance powder was prepared into a stock solution at a certain concentration with DMSO or another organic solvent, which was then further diluted with a suitable organic solvent.
# The liver microsomal in vitro incubation system for the CYP450 enzyme metabolism phenotype study was a biochemical reaction of the prepared liver microsomes supplemented with a redox coenzyme and an enzyme-specific selective inhibitor under simulated physiological temperature and physiological environment conditions.
# The concentration of the parent drug or a metabolite thereof in the incubation solution was determined by LC-MS/MS. and the IC50 value was calculated.
# [5] = male, Balb/c, plasma, 2 mg/kg, IV 2mpk
# [6] = male, Balb/c, plasma, 10 mg/kg, PO 10mpk
smiles,measurement,setting,value
CN(Cc1ccc2c(c1)OC(F)(F)O2)C(=O)c1cc2c(cc1F)nc(N)c1cnn(C)c12 [Example I-1],IC50,PRMT5,48.5 nM
same,EC50,HCT-116,3230 nM
same,EC50,HCT-116-MTAP^-/-,4.2 nM
same,EC50,A549,41.8 nM
same,EC50,SDMA [1],220 nM
same,EC50,SDMA [2],1.5 nM
same,EC50,SDMA [3],1.4 nM
same,AUC(0-inf),[4]; [5],5.69 µM·h
same,AUC(0-t),[4]; [5],5.45 µM·h
same,C0,[4]; [5],3.52 µM
same,MRT inf,[4]; [5],2.3 h
same,Vd,"[4]; male, Balb/c, plasma, 2 mg/kg, IV 2mpk, read-out: Vz",2 L/kg
same,AUC(0-inf),[4]; [6],18.4 µM·h
same,AUC(0-t),[4]; [6],18.1 µM·h
same,Cmax,[4]; [6],3.24 µM
same,Tmax,[4]; [6],1 h
same,MRT inf,[4]; [6],5.5 h
same,CLz,[4]; IV 2mpk,13 mL/min/kg
same,R_AUC(t/∞),[4]; IV 2mpk,95.8%
same,t1/2z,[4]; IV 2mpk,1.8 h
same,R_AUC(t/∞),[4]; PO 10mpk,98.3%
same,t1/2z,[4]; PO 10mpk,4.1 h
same,F,[4]; PO 10mpk vs IV 2mpk,64.7%
same,Day 28 TGI,HCT-116-MTAP^-/- cells,85%
Cn1ncc2c(N)nc3cnc(C(=O)N(Cc4ccc5c(c4)OC(F)(F)O5)C4CC4)cc3c21 [Example I-37],EC50,HCT-116,545 nM
same,EC50,HCT-116-MTAP^-/-,10.1 nM
same,EC50,A549,72.7 nM
same,EC50,SDMA [1],205 nM
same,EC50,SDMA [2],1.9 nM
same,EC50,SDMA [3],2.7 nM
same,Day 31 TGI,NCI-H838 cells; 10 mpk PO QD,58%
same,Day 31 TGI,NCI-H838 cells; 30 mpk PO QD,71%
same,Day 31 TGI,NCI-H838 cells; 100 mpk PO QD,104%
same,IC50,CYP450 3A4,> 10000 nM
